According to patent US10149907B2, “Combinations of a photosensitizer with a hydrogen sulfide donor, thioredoxin inhibitor or nitroxide for use in photodynamic therapy” (UNIVERSITY OF EXETER, priority 2014, dated 2018):
“Also recorded” adds a separate entry of the source. Read-outs that look alike come from different tables or passages of the source.

How the values were obtained:
A431 cells [1] = assay: cells; assay type: cell-based; conditions: for effect on photodynamic cell killing compared to MAL and irradiation only / modes of cell death (early apoptosis, late apoptosis, necrosis): 1 mM MAL + SRHD 1 μM + irradiation; for modes of cell death (early apoptosis, late apoptosis, necrosis): compared to MAL and irradiation, FIG. 2, 4
Description: A431 cells (human epithelial squamous cell carcinoma cells) were seeded at a density of 1×10^6 cells/ml in T12.5 cm^2 flasks and incubated under 2% O2 for 48 h prior to treatment. After 24 h, the culture medium was replaced and the cells were placed back into the incubators under 2% O2. Following this incubation period, the culture medium was then removed and the flasks were washed with PBS. The cells were then treated with one of the SRHDs and incubated at 2% O2 for 2 h, after which MAL was added to a final concentration of 1 mM and the cells were incubated at 2% O2 for 3 h. This meant in total, the cells were treated with the SRHDs for 5 h.
Following this final incubation, cell death was analysed by annexin V-FITC and propidium iodide staining in conjunction with flow cytometry.
(§1) Cell death analysis by flow cytometry was carried out using the annexin V-FITC/propidium iodide protocol. This protocol allows a quantitative assessment of cell death, particularly specific modes of death, and involves staining the cells with fluorescein isothiocyanate-conjugated annexin A5 (annexin V-FITC) and propidium iodide (PI). Positive staining with annexin V-FITC alone indicates an apoptotic cell; positive staining with PI alone indicates a necrotic cell and dual staining of both annexin V and PI indicates a “late apoptotic” cell.
From each flask being assessed, the old medium was removed and placed into a corresponding individual 15 ml Falcon tube in order to collect any cells that may have detached from the surface. The flask was washed once with 1 ml PBS; also deposited in the Falcon tubes. Trypsin (500 μl) was added to each flask and the flasks were returned to the incubator with their caps loosened. Cell detachment was monitored using an inverted light microscope, until 50% of the cells were detached. The flasks were then lightly tapped to detach the remainder of the cells. Medium (2 ml) was added to each flask in order to neutralise the trypsin present before being removed and dispensed into the Falcon tubes. One more wash with PBS was carried out in order to ensure any cells left in the flasks were collected. The Falcon tubes were then centrifuged at 490 g for 3 min, forming a pellet at the bottom of the tube. The supernatant was discarded, and the cells were re-suspended in 5 ml of PBS, in order to wash them, before being centrifuged again at 490 g for 3 min. […] The Falcon tubes were placed on ice and in the dark for 15 min to allow annexin V staining. […] The samples were then ready to be assessed by flow cytometry.
(§2) The following flow cytometry process of sample detection was used. When using annexin V-FITC and PI, the detectors being used were FL1 (λmax=520 nm) and FL3 (λmax=670 nm), respectively, each with their own logarithmic histogram generated by the software. The intensity of the fluorescence detected is measured on a logarithmic scale on the x-axis and the y-axis represents the number of cells detected at a given fluorescence intensity. A plot of FL1/FL3 produces a 4-quadrant graph, where unstained and untreated cells are located in the bottom left quadrant, representing any cells found in the 1st decade of the single plot logarithmic histograms. Single staining with annexin V-FITC and PI are located in the bottom right and top left quadrant, respectively, and dual staining is located in the top right quadrant. These quadrants represent any cells detected above the 1st decade of the logarithmic histograms.

A431 cells [2] = conditions: for cell viability, percentage of untreated control: 500 μM
Description: A431 cells were seeded at a density of 1×10^5 cells/ml in 96 well plates and incubated under 2% O2 for 48 h prior to treatment. After 24 h, the culture medium was replaced and the cells were placed back into the incubators under 2% O2. Following this incubation period, the culture medium was then removed and the plates were washed with PBS. The cells were then treated with 1 mM MAL in the absence or presence of one of the compounds of interest and then incubated again at 2% O2 for 3 h. For experiments carried out with SRHDs, this treatment step was carried out for 5 h at 2% O2. After treatment, the cells were washed with PBS, the culture medium was replaced and the cells were placed back under 2% O2 for 3 h. Following this final incubation, cell death was analysed using the resazurin viability assay.
Resazurin (7-hydroxy-3H-phenoxazin-3-one 0-oxide) is a weakly fluorescent blue dye used primarily in oxidation-reduction cell viability assays. Irreversible NADH-dependent reduction by the mitochondria in mammalian cells leads to the production of resorufin, a highly fluorescent product with excitation at 571 nm, emission at 585 nm.
A431 cells were seeded into 96 well plates at a density of 1.5*10^6 cells per ml (200 μl per well, 3*10^5 cells) and incubated for 24 h to adhere. Following incubation, the cells were washed and treated with the compound of interest for the relevant time, and then washed with PBS. […] After a 2 h incubation, the fluorescence of each well was measured (excitation: 571 nm, emission: 585 nm) using a fluorescence plate reader. Data from these experiments was plotted as a percentage of cell viability compared to untreated control cells.

A431 cells [3] = assay: Photodynamic cell killing in the presence of inhibitors of the thioredoxin antioxidant system or nitroxides (annexin V-FITC/propidium iodide flow cytometry); assay type: cell-based, human; conditions: for cell death: 3 h, irradiation
Description: After this treatment, the cells were irradiated for 5 min (630 nm, 25 J/cm^2), then washed with PBS and the culture medium was replaced, after which the cells were placed back under 2% O2 and incubated for a further 3 h. Following this final incubation, cell death was analysed by annexin V-FITC and propidium iodide staining in conjunction with flow cytometry.
as §1
From each flask being assessed, the old medium was removed and placed into a corresponding individual 15 ml Falcon tube in order to collect any cells that may have detached from the surface. The flask was washed once with 1 ml PBS; also deposited in the Falcon tubes. Trypsin (500 μl) was added to each flask and the flasks were returned to the incubator with their caps loosened. Cell detachment was monitored using an inverted light microscope, until 50% of the cells were detached. The flasks were then lightly tapped to detach the remainder of the cells. Medium (2 ml) was added to each flask in order to neutralise the trypsin present before being removed and dispensed into the Falcon tubes. One more wash with PBS was carried out in order to ensure any cells left in the flasks were collected. The Falcon tubes were then centrifuged at 490 g for 3 min, forming a pellet at the bottom of the tube. The supernatant was discarded, and the cells were re-suspended in 5 ml of PBS, in order to wash them, before being centrifuged again at 490 g for 3 min. The wash stage was carried out once more before re-suspending the cell pellet in 95 μl of ice cold calcium (Ca^2+) buffer (50 mM HEPES, 700 mM NaCl, 12.5 mM CaCl2, pH 7.4) and adding 5 μl 12.5 μg/ml of annexin V-FITC (final concentration, 1.25 μg/ml), under reduced light conditions to prevent bleaching of the FITC. The Falcon tubes were placed on ice and in the dark for 15 min to allow annexin V staining. After 15 min, 860 μl of Ca^2+ buffer (10 mM Hepes adjusted to pH 7.4, 140 mM NaCl and 2.5 mM CaCl2) was added, followed by 40 μl of 1 mg/ml PI in water (final concentration, 0.04 mg/ml) to give a final volume of 1 ml. The samples were then ready to be assessed by flow cytometry.
as §2

A431 cells [4] = assay: Mitochondrial reactive oxygen species generation during photodynamic irradiation, MitoSOX flow cytometry; assay type: cell-based, human; conditions: 3 hours, irradiated
Description: A431 cells were treated concurrently with AP39-C10 (10, 100 or 1000 nM) for 5 hours, MAL (1 mM) for 3 hours and MitoSOX (2.5 μM) for 1 hour, after which they were irradiated for 5 min (630 nm, 25 J/cm^2) and MitoSOX (mito-2-OH-E^+) fluorescence, indicative of mitochondrial oxidant production, was immediately analysed by flow cytometry. Results are set out in FIG. 23.
Mitochondria-targeted dihydroethidium (i.e. MitoSOX) was used to assess the production of mitochondrial reactive oxygen species (ROS) by PpIX photochemical reactions and to determine the effects of AP39-C10 on this process. All of the results are represented as a percentage of the untreated controls (100.0±8.5%). The fluorescence of the photoirradiated cells, which had been pre-treated with MAL, was 193.7±7.3% (p<0.001 c.f. untreated controls).

[5] = 1 mM MAL + SRHD 1 μM (5 h) + irradiation, 3 h post-irradiation
[6] = dark toxicity, without irradiation, SRHD 1 μM, 5 h, FIG. 1, 3

| Compound | cell death (A431 cells [1]; [5]) [%] | modes of cell death (early apoptosis, late apoptosis, necrosis) (A431 cells [1]) | cell viability, percentage of untreated control (A431 cells [2]; 5 hours, FIG. 15, 16) [%] | cell death (A431 cells [1]; [6]) [%] | other results |
| --- | --- | --- | --- | --- | --- |
| NC(=S)c1ccc(O)cc1 [4-HTB, 4-hydroxythiobenzamide] | 22.5±5.5 | no effect on the types of cell death observed compared to treatment with MAL and irradiation |  |  | effect on photodynamic cell killing compared to MAL and irradiation only (A431 cells [1]): no statistically significant effect on photodynamic cell killing; concentration up to which treatment was well tolerated (A431 cells [2]; 5 hours, range 0.1-500 μM): up to 500 μM |
| Oc1ccc(-c2cc(=S)ss2)cc1 [ADT-OH, 5-(4-hydroxyphenyl)-3H-1,2-dithiole-3-thione] | 25.7±6 | no effect on the types of cell death observed compared to treatment with MAL and irradiation | 76.7±1.3 |  | effect on photodynamic cell killing compared to MAL and irradiation only (A431 cells [1]): no statistically significant effect on photodynamic cell killing |
| O=C(CCCCCCC[P+](c1ccccc1)(c1ccccc1)c1ccccc1)Oc1ccc(-c2cc(=S)ss2)cc1 [AP39-C8] | 46.3±2.1 |  | 20.1±4.5 | 14.9±2.3 |  |
| O=C(CCCCCCCCCCC[P+](c1ccccc1)(c1ccccc1)c1ccccc1)Oc1ccc(-c2cc(=S)ss2)cc1 [AP39-C12] | 51.6±3.2 |  | 13.3±1.8 | 11.7±1.5 |  |
| NC(=S)c1ccc(OC(=O)CCCCCCC[P+](c2ccccc2)(c2ccccc2)c2ccccc2)cc1 [AP123-C8] | 67.5±6.4 |  | 13.2±1.8 | 13.2±3.1 |  |
| NC(=S)c1ccc(OC(=O)CCCCCCCCCCC[P+](c2ccccc2)(c2ccccc2)c2ccccc2)cc1 [AP123-C12] | 72.5±2.0 | less effect on early apoptosis, instead increasing late apoptosis and necrosis | 17.0±0.7 | 12.7±3.0 |  |
| CCC(C)SSc1ncc[nH]1 (stereo not drawn) [PX12, 2-[(1-Methylpropyl)dithio]-1H-imidazole] |  |  |  |  | cell death (A431 cells [3]; 1 mM MAL + co-treatment 10 μM): 70.5±4.5%; potentiating effect on MAL photodynamic cell killing (A431 cells [3]; summary of Examples 2A, 3A): more robust potentiating effect; cell viability, percentage of untreated control (A431 cells [2]; 24 hours): 47.5±4.9%; concentration up to which well tolerated / no cytotoxicity (A431 cells [2]; 24 hours): ≤ 100 µM; MitoSOX fluorescence, percentage of untreated cells (A431 cells [4]; MAL 1 mM + co-treatment 10 μM): 211.4±17.6% |
| CC[PH](CC)(CC)[Au][S][C@@H]1O[C@H](COC(C)=O)[C@@H](OC(C)=O)[C@H](OC(C)=O)[C@H]1OC(C)=O [auranofin] |  |  |  |  | modes of cell death (A431 cells [3]): primarily increased necrotic cell death; also recorded: slightly increased late apoptotic cell death; also recorded: concentration-dependent increases in late apoptosis and necrosis, with little effect on early apoptosis; potentiating effect on MAL photodynamic cell killing (A431 cells [3]): more robust potentiating effect; concentration up to which well tolerated / no cytotoxicity (A431 cells [2]; human): ≤ 10 µM |
| aurothiomalate [ATM] |  |  |  |  | cell death (A431 cells [3]; 1 mM MAL + co-treatment 20 μM): 66.7±4.9%; potentiating effect on MAL photodynamic cell killing (A431 cells [3]; summary of Examples 2A, 3A): more robust potentiating effect; tolerance (dark toxicity) (A431 cells [2]; 0.1-500 μM, 24 hours): well tolerated at all concentrations tested; MitoSOX fluorescence, percentage of untreated cells (A431 cells [4]; MAL 1 mM + co-treatment 20 μM): 192.4±5.6% |
